In US20200207759A1, “NEW PROPANAMINE DERIVATIVES FOR TREATING PAIN AND PAIN RELATED CONDITIONS” (ESTEVE PHARMACEUTICALS, S.A., priority 2017, published 2020):

How the values were obtained:
[1] = target: Human norepinephrine transporter (NET) (Homo sapiens, UniProt P23975); experiment: Binding assay to human norepinephrine transporter (NET), [3H]-Nisoxetin; settings: human NET enriched membranes, 5 nM [3H]-Nisoxetin; read-out: Ki (nM) NET Hum
How it was run: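 NET-enriched membranes (5 μg) incubated with 5 nM [3H]-nisoxetin in 50 mM Tris-HCl, 120 mM NaCl, 5 mM KCl, pH 7.4, for 60 min at 4 °C. Separation by filtration on PEI-soaked GF/C, then scintillation counting.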

[2] = target: Human α2δ-1 subunit of Cav2.2 calcium channel (Homo sapiens, UniProt P54289); experiment: Binding assay to human α2δ-1 subunit of Cav2.2 calcium channel, [3H]-Gabapentin; settings: human α2δ-1 enriched membranes, 15 nM [3H]-Gabapentin; read-out: Ki (nM) alpha2delta Hum
How it was run: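 Human α2δ-1-enriched membranes incubated with 15 nM [3H]-gabapentin in 10 mM Hepes-KOH pH 7.4, 60 min at 27 °C; nonspecific binding defined with 10 μM pregabalin. Bound ligand separated by filtration on PEI-presoaked GF/C filters, washed with ice-cold 50 mM Tris-HCl pH 7.4, counted by scintillation.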

Sequence of Human α2δ-1 subunit of Cav2.2 calcium channel (P54289 25-1103): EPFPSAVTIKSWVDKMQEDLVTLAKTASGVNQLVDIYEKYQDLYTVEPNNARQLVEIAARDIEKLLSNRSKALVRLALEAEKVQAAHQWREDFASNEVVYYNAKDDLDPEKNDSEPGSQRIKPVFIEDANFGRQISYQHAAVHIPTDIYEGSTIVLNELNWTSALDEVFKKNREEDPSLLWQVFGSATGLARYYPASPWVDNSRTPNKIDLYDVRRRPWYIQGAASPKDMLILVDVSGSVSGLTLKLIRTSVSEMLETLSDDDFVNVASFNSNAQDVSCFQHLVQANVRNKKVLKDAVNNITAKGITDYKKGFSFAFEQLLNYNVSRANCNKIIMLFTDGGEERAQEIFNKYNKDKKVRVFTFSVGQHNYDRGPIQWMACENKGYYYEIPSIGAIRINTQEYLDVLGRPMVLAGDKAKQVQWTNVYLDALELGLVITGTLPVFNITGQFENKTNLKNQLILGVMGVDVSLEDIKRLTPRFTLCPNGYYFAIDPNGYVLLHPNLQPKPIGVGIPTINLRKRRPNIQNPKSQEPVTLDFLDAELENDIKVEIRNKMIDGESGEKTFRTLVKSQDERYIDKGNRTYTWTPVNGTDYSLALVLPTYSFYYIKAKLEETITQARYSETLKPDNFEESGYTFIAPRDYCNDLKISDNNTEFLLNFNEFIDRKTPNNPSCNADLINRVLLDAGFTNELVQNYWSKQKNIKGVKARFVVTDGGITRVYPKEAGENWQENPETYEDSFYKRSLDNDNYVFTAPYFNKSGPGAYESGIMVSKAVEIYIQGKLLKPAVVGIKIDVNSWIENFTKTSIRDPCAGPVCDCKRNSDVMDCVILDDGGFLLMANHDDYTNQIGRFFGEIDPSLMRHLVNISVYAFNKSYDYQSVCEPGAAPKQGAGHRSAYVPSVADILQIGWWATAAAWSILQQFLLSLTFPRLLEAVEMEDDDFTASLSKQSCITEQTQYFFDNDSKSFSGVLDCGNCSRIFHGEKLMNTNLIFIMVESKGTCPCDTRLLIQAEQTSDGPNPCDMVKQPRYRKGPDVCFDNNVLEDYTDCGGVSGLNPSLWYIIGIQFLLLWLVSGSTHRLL
Sequence of Human norepinephrine transporter (NET) (P23975 whole entry): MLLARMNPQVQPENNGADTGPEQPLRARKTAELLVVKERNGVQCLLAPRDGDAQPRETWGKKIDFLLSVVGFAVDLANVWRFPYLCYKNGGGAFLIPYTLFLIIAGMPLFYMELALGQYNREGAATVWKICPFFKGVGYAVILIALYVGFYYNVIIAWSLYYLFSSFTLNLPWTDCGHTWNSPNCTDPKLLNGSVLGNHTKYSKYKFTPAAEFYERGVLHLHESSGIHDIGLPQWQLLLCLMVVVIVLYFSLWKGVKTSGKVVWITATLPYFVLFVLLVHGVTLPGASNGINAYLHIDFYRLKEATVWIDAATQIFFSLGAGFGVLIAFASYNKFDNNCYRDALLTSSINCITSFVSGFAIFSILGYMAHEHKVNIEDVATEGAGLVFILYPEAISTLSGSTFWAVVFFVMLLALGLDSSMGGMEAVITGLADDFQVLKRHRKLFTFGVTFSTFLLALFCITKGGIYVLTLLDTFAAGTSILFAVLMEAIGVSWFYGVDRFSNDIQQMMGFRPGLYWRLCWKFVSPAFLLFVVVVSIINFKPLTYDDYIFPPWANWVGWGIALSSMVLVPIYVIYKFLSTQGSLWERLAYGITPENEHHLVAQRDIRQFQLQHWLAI

Row | Ki [1] [nM] | Ki [2] [nM] | Structure (SMILES)
1 | 100 to 500 | ≥ 3000 | CNCCC(c1cccs1)N1CCc2cc(F)ccc21 (centres unmarked) [Example 72, 3-(5-Fluoroindolin-1-yl)-N-methyl-3-(thiophen-2-yl)propan-1-amine]
2 | > 1000 | 100 to 500 | CNCC[C@H](c1cccs1)N1CCc2ncc(F)cc21 [Example 26, (R)-3-(6-Fluoro-2,3-dihydro-1H-pyrrolo[3,2-b]pyridin-1-yl)-N-methyl-3-(thiophen-2-yl)propan-1-amine]
3 | 500 to 1000 | < 100 | CNCC[C@H](c1ccsc1)N1CCc2ncc(C3CC3)cc21 [Example 52, (R)-3-(6-Cyclopropyl-2,3-dihydro-1H-pyrrolo[3,2-b]pyridin-1-yl)-N-methyl-3-(thiophen-3-yl)propan-1-amine]
4 | 100 to 500 | ≥ 3000 | CNCC[C@@H](c1cscc1C)N1CCc2ncccc21 [Example 50, (S)-3-(2,3-Dihydro-1H-pyrrolo[3,2-b]pyridin-1-yl)-N-methyl-3-(4-methylthiophen-3-yl)propan-1-amine]
5 | > 1000 | 100 to 500 | CNCC[C@H](c1ccsc1)N1CC(C)(C)c2ncccc21 [Example 24, (R)-3-(3,3-Dimethyl-2,3-dihydro-1H-pyrrolo[3,2-b]pyridin-1-yl)-N-methyl-3-(thiophen-3-yl)propan-1-amine]
6 | > 1000 | 100 to 500 | CNCCC(c1cccs1)N1CC(C)(C)c2ncc(Cl)cc21 (centres unmarked) [Example 73, 3-(6-Chloro-3,3-dimethyl-2,3-dihydro-1H-pyrrolo[3,2-b]pyridin-1-yl)-N-methyl-3-(thiophen-2-yl)propan-1-amine]
7 | 500 to 1000 | 500 to 3000 | CNCCC(c1ccsc1)N1CC(C)(C)c2ncccc21 (centres unmarked) [Example 13, 3-(3,3-Dimethyl-2,3-dihydro-1H-pyrrolo[3,2-b]pyridin-1-yl)-N-methyl-3-(thiophen-3-yl)propan-1-amine]
8 | > 1000 | 100 to 500 | CNCCC(c1cccs1)N1CC(C)(C)c2nc(C(F)(F)F)ccc21 (centres unmarked) [Example 75, 3-(3,3-Dimethyl-5-(trif1uoromethyl)-2,3-dihydro-1H-pyrrolo[3,2-b]pyridin-1-yl)-N-methyl-3-(thiophen-2-yl)propan-1-amine]
9 | > 1000 | 500 to 3000 | CNCCC(c1ccsc1)N1CCc2cnccc21 (centres unmarked) [Example 74, 3-(2,3-Dihydro-1H-pyrrolo[3,2-c]pyridin-1-yl)-N-methyl-3-(thiophen-3-yl)propan-1-amine]
10 | < 100 | ≥ 3000 | CNCCC(c1cccs1)N1CCc2c(OC)cccc21 (centres unmarked) [Example 69, 3-(4-Methoxyindolin-1-yl)-N-methyl-3-(thiophen-2-yl)propan-1-amine]
11 | > 1000 | 500 to 3000 | CNCC[C@@H](c1ccsc1)N1CCc2ncc(C3CC3)cc21 [Example 53, (S)-3-(6-Cyclopropyl-2,3-dihydro-1H-pyrrolo[3,2-b]pyridin-1-yl)-N-methyl-3-(thiophen-3-yl)propan-1-amine]
12 | 500 to 1000 | 100 to 500 | CNCCC(c1ccsc1)N1CCc2ncc(C)cc21 (centres unmarked) [Example 14, N-methyl-3-(6-methyl-2,3-dihydro-1H-pyrrolo[3,2-b]pyridin-1-yl)-3-(thiophen-3-yl)propan-1-amine]
13 | > 1000 | 100 to 500 | CNCC[C@H](c1cccs1)N1CC(C)(C)c2ncc(Cl)cc21 [Example 110, (R)-3-(6-chloro-3,3-dimethyl-2,3-dihydro-1H-pyrrolo[3,2-b]pyridin-1-yl)-N-methyl-3-(thiophen-2-yl)propan-1-amine]
14 | > 1000 | ≥ 3000 | CNCC[C@@H](c1nccs1)N1CCc2ncccc21 [Example 55, (S)-3-(2,3-Dihydro-1H-pyrrolo[3,2-b]pyridin-1-yl)-N-methyl-3-(thiazol-2-yl)propan-1-amine]
15 | < 100 | 500 to 3000 | CNCCC(c1cccs1)N1CCc2c(F)cccc21 (centres unmarked) [Example 67, 3-(4-Fluoroindolin-1-yl)-N-methyl-3-(thiophen-2-yl)propan-1-amine]
16 | > 1000 | ≥ 3000 | CNCC[C@@H](c1cccs1)N1CC(C)(C)c2ncc(Cl)cc21 [Example 109, (S)-3-(6-Chloro-3,3-dimethyl-2,3-dihydro-1H-pyrrolo[3,2-b]pyridin-1-yl)-N-methyl-3-(thiophen-2-yl)propan-1-amine]
17 | > 1000 | 500 to 3000 | CNCC[C@@H](c1cccs1)N1CC(C)(C)c2ncc(F)cc21 [Example 105, (S)-3-(6-Fluoro-3,3-dimethyl-2,3-dihydro-1H-pyrrolo[3,2-b]pyridin-1-yl)-N-methyl-3-(thiophen-2-yl)propan-1-amine]
18 | < 100 | 500 to 3000 | CNCCC(c1cccs1)N1CCc2ccccc21 (centres unmarked) [Example 1, 3-(Indolin-1-yl)-N-methyl-3-(thiophen-2-yl)propan-1-amine]

Row | Structure (SMILES) | Ki [1] [nM] | Ki [2] [nM]
19 | NCCC(c1cccs1)N1CCc2ncccc21 (centres unmarked) [Example 9, 3-(2,3-Dihydro-1H-pyrrolo[3,2-b]pyridin-1-yl)-3-(thiophen-2-yl)propan-1-amine] | > 1000 | ≥ 3000
